Measurements from ChEMBL document CHEMBL1123524, “Aminoglycoside antibiotics. 6. Chemical reactions of aminoglycosides with disodium carbenicillin” (1986).

Columns and labels:
[1] = test system: Providencia rettgeri; assay: Antibacterial activity expressed as MIC value was determined on Proteus rettgeri A-21207 organism; type: functional
[2] = test system: Pseudomonas aeruginosa; assay: Antibacterial activity expressed as MIC value was determined on Pseudomonas aeruginosa A-20601 organism; type: functional
[3] = test system: Staphylococcus aureus; assay: Antibacterial activity expressed as MIC value was determined on Staphylococcus aureus A-22210 organism; type: functional
[4] = test system: Proteus mirabilis; assay: Antibacterial activity expressed as MIC value was determined on Proteus mirabilis A-9900 organism; type: functional
[5] = test system: Enterobacter cloacae; assay: Antibacterial activity expressed as MIC value was determined on Enterobacter cloacae A-20364 organism; type: functional
[6] = test system: Staphylococcus aureus; assay: Antibacterial activity expressed as MIC value was determined on Staphylococcus aureus A-21978 organism; type: functional
[7] = test system: Escherichia coli; assay: (§1) Antibacterial activity expressed as MIC value was determined on Escherichia coli A-22356 organism; type: functional
[8] = test system: Escherichia coli; assay: Antibacterial activity expressed as MIC value was determined on Escherichia coli A-20732 organism; type: functional
[9] = test system: Enterobacter cloacae; assay: Antibacterial activity expressed as MIC value was determined on Enterobacter cloacae A-21136 organism; type: functional
[10] = test system: Providencia stuartii; assay: Antibacterial activity expressed as MIC value was determined on Proteus stuartii A-21210 organism; type: functional
[11] = test system: Escherichia coli; assay: Antibacterial activity expressed as MIC value was determined on Escherichia coli A-9632 organism; type: functional
[12] = test system: Staphylococcus aureus; assay: Antibacterial activity expressed as MIC value was determined on Staphylococcus aureus A-9537 organism; type: functional
[13] = test system: Escherichia coli; assay: Antibacterial activity expressed as MIC value was determined on Escherichia coli A-22045 organism; type: functional
[14] = test system: Staphylococcus aureus; assay: Antibacterial activity expressed as MIC value was determined on Staphylococcus aureus A-22058 organism; type: functional
[15] = test system: Escherichia coli; assay: Antibacterial activity expressed as MIC value was determined on Escherichia coli A-20665 organism; type: functional
[16] = test system: Pseudomonas aeruginosa; assay: Antibacterial activity expressed as MIC value was determined on Pseudomonas aeruginosa A-20653 organism; type: functional
[17] = test system: Escherichia coli; assay: Antibacterial activity expressed as MIC value was determined on Escherichia coli A-20895 organism; type: functional
[18] = test system: Enterobacter cloacae; assay: Antibacterial activity expressed as MIC value was determined on Enterobacter cloacae A-21006 organism; type: functional
[19] = test system: Pseudomonas aeruginosa; assay: Antibacterial activity expressed as MIC value was determined on Pseudomonas aeruginosa A-20897 organism; type: functional
[20] = test system: Staphylococcus aureus; assay: Antibacterial activity expressed as MIC value was determined on Staphylococcus aureus A-20240 organism; type: functional
[21] = test system: Providencia rettgeri; assay: (§2) Antibacterial activity expressed as MIC value was determined on Proteus rettgeri A-9637 organism; type: functional
[22] = test system: Escherichia coli; assay: Antibacterial activity expressed as MIC value was determined on Escherichia coli A-21218 organism; type: functional
[23] = test system: Providencia stuartii; assay: Antibacterial activity expressed as MIC value was determined on Proteus stuartii A-20894 organism; type: functional
[24] = test system: Klebsiella pneumoniae; assay: Antibacterial activity expressed as MIC value was determined on Klebsiella pneumonia A-20468 organism; type: functional
[25] = test system: Pseudomonas aeruginosa; assay: Antibacterial activity expressed as MIC value was determined on Pseudomonas aeruginosa A-20741 organism; type: functional
[26] = test system: Enterobacter cloacae; assay: Antibacterial activity expressed as MIC value was determined on Enterobacter cloacae A-9656 organism; type: functional
[27] = test system: Staphylococcus aureus; assay: Antibacterial activity expressed as MIC value was determined on Staphylococcus aureus A-22231 organism; type: functional
[28] = test system: Pseudomonas aeruginosa; assay: Antibacterial activity expressed as MIC value was determined on Pseudomonas aeruginosa A-22233 organism; type: functional
[29] = test system: Pseudomonas aeruginosa; assay: Antibacterial activity expressed as MIC value was determined on Pseudomonas aeruginosa A-9834A organism; type: functional
[30] = test system: Escherichia coli; assay: Antibacterial activity expressed as MIC value was determined on Escherichia coli A-20683 organism; type: functional
[31] = test system: Escherichia coli; assay: Antibacterial activity expressed as MIC value was determined on Escherichia coli A-20697 organism; type: functional
[32] = test system: Serratia marcescens; assay: Antibacterial activity expressed as MIC value was determined on Serratia marcescens A-20019 organism; type: functional
[33] = test system: Pseudomonas aeruginosa; assay: Antibacterial activity expressed as MIC value was determined on Pseudomonas aeruginosa A-20717 organism; type: functional
[34] = test system: Pseudomonas aeruginosa; assay: Antibacterial activity expressed as MIC value was determined on Pseudomonas aeruginosa A-21509 organism; type: functional
[35] = test system: Pseudomonas aeruginosa; assay: Antibacterial activity expressed as MIC value was determined on Pseudomonas aeruginosa A-21294 organism; type: functional
[36] = test system: Pseudomonas aeruginosa; assay: Antibacterial activity expressed as MIC value was determined on Pseudomonas aeruginosa A-21508 organism; type: functional
[37] = test system: Escherichia coli; assay: as §1; type: functional; remark: listed apart in the source
[38] = test system: Staphylococcus aureus; assay: Antibacterial activity expressed as MIC value was determined on Staphylococcus aureusA-22058 organism; type: functional, organism-based
[39] = test system: Providencia rettgeri; assay: as §2; type: functional; remark: listed apart in the source

Compound | MIC [1] [µg/mL] | MIC [2] [µg/mL] | MIC [3] [µg/mL] | MIC [4] [µg/mL] | MIC [5] [µg/mL] | MIC [6] [µg/mL] | MIC [8] [µg/mL] | MIC [9] [µg/mL] | MIC [10] [µg/mL] | MIC [11] [µg/mL] | MIC [12] [µg/mL] | MIC [13] [µg/mL] | MIC [15] [µg/mL] | MIC [16] [µg/mL] | MIC [17] [µg/mL] | MIC [18] [µg/mL] | MIC [19] [µg/mL] | MIC [20] [µg/mL] | MIC [22] [µg/mL] | MIC [23] [µg/mL] | further results
CC1(C)S[C@@H]2[C@H](NC(=O)C(C(=O)O)c3ccccc3)C(=O)N2[C@H]1C(=O)O.NC[C@H]1O[C@H](O[C@H]2[C@H](O)[C@@H](O[C@H]3O[C@H](CO)[C@@H](O)[C@H](N)[C@H]3O)[C@H](N)C[C@@H]2N)[C@H](N)C[C@@H]1O | > 250 | > 250 | > 250 | > 250 | > 250 | > 250 | > 250 | > 250 | > 250 | > 250 | 63 | > 250 | > 250 | 250 | > 250 | > 250 | > 250 | > 250 | > 250 | > 250 | MIC [7]: > 250 µg/mL; MIC [14]: > 250 µg/mL; MIC [21]: 125 µg/mL; MIC [24]: > 250 µg/mL; MIC [25]: > 250 µg/mL; MIC [26]: > 250 µg/mL; MIC [27]: 63 µg/mL; MIC [28]: > 250 µg/mL; MIC [29]: 250 µg/mL; MIC [30]: > 250 µg/mL; MIC [31]: > 250 µg/mL; MIC [32]: 250 µg/mL; MIC [33]: > 250 µg/mL; MIC [34]: > 250 µg/mL; MIC [35]: > 250 µg/mL; MIC [36]: 250 µg/mL
CC1(C)S[C@@H]2[C@H](NC(=O)C(C(=O)O)c3ccccc3)C(=O)N2[C@H]1C(=O)O.NC[C@H]1O[C@H](O[C@H]2[C@H](O)[C@@H](O[C@H]3O[C@H](CO)[C@@H](O)[C@H](N)[C@H]3O)[C@H](N)C[C@@H]2N)[C@H](O)[C@@H](O)[C@@H]1O | > 250 | > 250 | > 250 | > 250 | > 250 | > 250 | > 250 | > 250 | > 250 | > 250 | > 250 | > 250 | > 250 | > 250 | > 250 | > 250 | > 250 | > 250 | > 250 | > 250 | MIC [7]: > 250 µg/mL; MIC [14]: > 250 µg/mL; MIC [21]: 250 µg/mL; MIC [24]: > 250 µg/mL; MIC [25]: > 250 µg/mL; MIC [26]: > 250 µg/mL; MIC [27]: > 250 µg/mL; MIC [28]: > 250 µg/mL; MIC [29]: > 250 µg/mL; MIC [30]: > 250 µg/mL; MIC [31]: > 250 µg/mL; MIC [32]: > 250 µg/mL; MIC [33]: > 250 µg/mL; MIC [34]: > 250 µg/mL; MIC [35]: > 250 µg/mL; MIC [36]: > 250 µg/mL
2-{4,6-Diamino-3-[3-amino-6-(1-amino-ethyl)-tetrahydro-pyran-2-yloxy]-2-hydroxy-cyclohexyloxy}-5-methyl-4-methylamino-tetrahydro-pyran-3,5-diol; compound with 6-(2-carboxy-2-phenyl-acetylamino)-3,3-dimethyl-7-oxo-4-thia-1-aza-bicyclo[3.2.0]heptane-2-carbo | > 250 | > 250 | > 250 | 250 | 250 | > 250 | > 250 | > 250 | > 250 | 250 | 16 | > 250 | > 250 | > 250 | > 250 | 250 | > 250 | > 250 | 250 | > 250 | MIC [37]: 250 µg/mL; MIC [38]: 32 µg/mL; MIC [24]: 125 µg/mL; MIC [25]: > 250 µg/mL; MIC [26]: > 250 µg/mL; MIC [39]: 32 µg/mL; MIC [27]: 16 µg/mL; MIC [28]: > 250 µg/mL; MIC [29]: > 250 µg/mL; MIC [30]: > 250 µg/mL; MIC [31]: 250 µg/mL; MIC [32]: > 250 µg/mL; MIC [33]: > 250 µg/mL; MIC [34]: > 250 µg/mL; MIC [35]: > 250 µg/mL; MIC [36]: > 250 µg/mL
